Test in all cases: NCI-60 cell line screen, 48 h
In assay [1] the test system is A498.
For assay [2], the system named is NCI-H522.
Assay [3] has as its system NCI/ADR-RES.
The test system of assay [4] is SK-MEL-28.
In assay [5] the test system is SNB-19.
Assay [6] relates to CCRF-CEM.
Assay [7] concerns NCI-H226.
Assay [8] has as its system T47D.
Assay [9] has as its system DU-145.
In assay [10] the test system is TK-10.
Assay [11] has as its system RXF 393.
The test system of assay [12] is U-251.
The subject of assay [13] is BT-549.
The test system of assay [14] is MCF7.
Assay [15] deals with SW-620.
For assay [16], the system named is IGROV-1.
The test system of assay [17] is M14.
The subject of assay [18] is CAKI-1.

The structures appear in SMILES notation.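 Protocol summary: plate cells (96-well), add compound at 5 concentrations, incubate 48 h, interpolate endpoints linearly. GI50 is the concentration that inhibits growth by half.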 Calls of active or inactive are those of the source. No stated cut-off is given here; in the data, active = GI50 up to about 1.1 µM and inactive = higher.

Consider `Oc1c(CN2CCOCC2)ccc(CN2CCOCC2)c1O`, for which the GI50 in assay [1] was > 100 µM (inactive); in assay [2], 29.6 µM (inactive); in [3], 30.1 µM (inactive); in assay [4] it was 61.5 µM (inactive); in assay [5] it was 43.3 µM (inactive); in [6] it was 3.62 µM (inactive). In addition, the GI50 in assay [7] was 28.4 µM (inactive); in [8], 39.7 µM (inactive); in assay [9], 26.6 µM (inactive); in [10], 47.2 µM (inactive); in assay [11] it was 29.2 µM (inactive); in assay [12] it was 40.1 µM (inactive). Besides, the GI50 in assay [13] is 81.3 µM (inactive); in assay [14], 35.2 µM (inactive); in assay [15] it was 83.6 µM (inactive); in assay [16], 70.5 µM (inactive); in assay [17], 22.9 µM (inactive); in assay [18] it was 52 µM (inactive).
`COc1cc(C2C3=C(COC3=O)Oc3cc4c(cc32)OCO4)ccc1O` (stereo unspecified): the GI50 in assay [1] is 0.668 µM (active); in assay [2] it was 0.0792 µM (active); in [3] it was 0.242 µM (active); in assay [4] it was 0.847 µM (active); in assay [5], 0.333 µM (active); in assay [6], 0.352 µM (active). In addition, the GI50 in assay [7] was 9.55 µM (inactive); in [8], 0.49 µM (active); in [9] it was 0.514 µM (active); in assay [10], > 100 µM (inactive); in assay [11], 0.306 µM (active); in assay [12], 0.467 µM (active). In addition, the GI50 in assay [13] was 1.1 µM (active); in [14], 0.277 µM (active); in [15], 0.329 µM (active); in assay [16], 0.509 µM (active); in assay [17], 0.439 µM (active); in assay [18], 0.0445 µM (active).
As for `O[C@]12C=C(c3nccc4c3[nH]c3ccccc34)[C@@H]3CCN(CCCC/C=C\CC1)C[C@@]31CC3/C=C\CCCCN3[C@H]12` (stereo partly specified), the GI50 in assay [1] was 0.364 µM (active); in assay [2], 0.263 µM (active); in [3], 0.514 µM (active); in [4] it was 0.615 µM (active); in assay [5] it was 1.23 µM (inactive); in [6], 0.74 µM (active). The GI50 is 0.582 µM (active) in assay [7]; 0.34 µM (active) in assay [8]; 0.344 µM (active) in assay [9]; 0.378 µM (active) in [10]; 0.355 µM (active) in [12]; 0.804 µM (active) in [13]. The GI50 in assay [14] is 0.478 µM (active); in [15], 0.306 µM (active); in assay [16], 0.112 µM (active); in [17], 0.371 µM (active); in [18], 0.541 µM (active).
With `CCN(CCO)CC1COc2ccccc2O1` (stereo unspecified), the GI50 in [1], in assay [2], in assay [3], in [4], in assay [6] and in assay [7] was > 100 µM (inactive) throughout. The GI50 in assay [8], in [9], in assay [10], in [11], in assay [12] and in [13] was > 100 µM (inactive) in each case. Further, the GI50 in [14], in [16], in assay [17] and in [18] was > 100 µM (inactive) each time.
`Cn1ncc(NCCn2cnc3c2c(=O)n(C)c(=O)n3C)c(Cl)c1=O`: the GI50 in assay [1], in assay [2], in [3], in assay [4], in [5] and in assay [6] was > 100 µM (inactive) throughout. For the same compound, the GI50 in [7], in assay [8], in assay [9], in assay [10], in [11] and in assay [12] was > 100 µM (inactive) throughout. The GI50 in assay [13], in assay [14], in assay [15], in assay [16], in [17] and in [18] was > 100 µM (inactive) throughout.
With `NC12c3c4cccc3Oc3cccc(c31)Oc1cccc(c12)O4`, the GI50 in [1] was > 50 µM (inactive); in [2], 17.7 µM (inactive); in assay [3], > 50 µM (inactive); in assay [4], > 50 µM (inactive); in [5] it was > 50 µM (inactive); in assay [6] it was > 50 µM (inactive). Further, the GI50 in assay [7], in [8], in assay [9], in assay [11], in assay [12] and in assay [13] was > 50 µM (inactive) in each case. The GI50 in assay [14], in assay [15], in [16], in assay [17] and in [18] was > 50 µM (inactive) throughout.
`O=S(=O)(NC1OCCCC1I)c1ccccc1` (stereo unspecified): the GI50 in assay [1] is > 100 µM (inactive); in [2], > 100 µM (inactive); in [3], > 100 µM (inactive); in assay [4] it was > 100 µM (inactive); in [5], > 100 µM (inactive); in assay [6], 68.4 µM (inactive). Further, the GI50 in [7], in assay [8], in [9], in [10], in assay [11] and in assay [12] was > 100 µM (inactive) each time. For the same compound, the GI50 in assay [13] is > 100 µM (inactive); in assay [14], > 100 µM (inactive); in assay [15], > 100 µM (inactive); in [16], 44.5 µM (inactive); in [18], > 100 µM (inactive).
`CC(=O)N1C(CCc2ccccc2)CC(C)(C=O)C1Cc1ccc(O[Si](C(C)C)(C(C)C)C(C)C)cc1` (stereo unspecified): the GI50 in assay [1] was 2.87 µM (inactive); in assay [2] it was 2.15 µM (inactive); in assay [3], 8.81 µM (inactive); in assay [4], 6.32 µM (inactive); in assay [5], 4.83 µM (inactive); in assay [6] it was 1.87 µM (inactive). Moreover, the GI50 is 6.76 µM (inactive) in assay [7]; 2.2 µM (inactive) in [8]; 5.61 µM (inactive) in [9]; 3.68 µM (inactive) in assay [10]; 1.69 µM (inactive) in assay [11]; 3.12 µM (inactive) in assay [12]. Moreover, the GI50 in assay [13] was 15.6 µM (inactive); in assay [14] it was 2.05 µM (inactive); in assay [15], 3.21 µM (inactive); in [16] it was 4.9 µM (inactive); in assay [17], 1.85 µM (inactive); in assay [18], 3.05 µM (inactive).
Take `Cc1ccc(/N=N/c2ccc(O)c(CN(C)C)c2)cc1C`: the GI50 was 22.3 µM (inactive) in assay [1]; 10.6 µM (inactive) in [2]; 16 µM (inactive) in assay [3]; 5.47 µM (inactive) in assay [4]; 34.2 µM (inactive) in assay [5]; 24 µM (inactive) in assay [6]. The GI50 was 26.9 µM (inactive) in assay [7]; 14 µM (inactive) in [8]; 29.5 µM (inactive) in assay [9]; 16.1 µM (inactive) in assay [10]; 17.5 µM (inactive) in [11]; 34.6 µM (inactive) in [12]. For the same compound, the GI50 is 25.6 µM (inactive) in assay [13]; 35.3 µM (inactive) in assay [14]; 33.6 µM (inactive) in assay [15]; 21.3 µM (inactive) in assay [16]; 33 µM (inactive) in [17]; 25.6 µM (inactive) in [18].
On to `CC1OC(OC2C(O[C@H]3CC[C@@]4(C)C(=CC[C@H]5[C@@H]6C[C@@H]7O[C@]8(CC[C@@H](CO)CO8)[C@@H](C)[C@@H]7[C@@]6(C)CC[C@@H]54)C3)OC(CO)C(O)C2OC2OC(CO)C(O)C(O)C2O)C(O)C(O)C1O` (stereo partly specified), for which the GI50 is 2.01 µM (inactive) in [1]; 1.72 µM (inactive) in assay [2]; 1.97 µM (inactive) in assay [3]; 1.95 µM (inactive) in [4]; 2.02 µM (inactive) in [5]; 1.97 µM (inactive) in assay [7]. Besides, the GI50 in [8] was 1.87 µM (inactive); in assay [9], 1.84 µM (inactive); in assay [10] it was 1.71 µM (inactive); in assay [11] it was 1.53 µM (inactive); in assay [12] it was 1.79 µM (inactive); in [13], > 10 µM (inactive). Moreover, the GI50 in assay [14] is 1.77 µM (inactive); in [15], 1.86 µM (inactive); in [16], 1.95 µM (inactive); in [17], 2.04 µM (inactive); in assay [18] it was 1.95 µM (inactive).
On to `Clc1ccc(C(c2ccc(Cl)cc2)N2CCNCC2)cc1`, for which the GI50 in assay [1] is 1.78 µM (inactive); in assay [2] it was 1.78 µM (inactive); in [3], 3.1 µM (inactive); in assay [4], 1.81 µM (inactive); in [5] it was 5.13 µM (inactive); in assay [6] it was 2.34 µM (inactive). For the same compound, the GI50 in [8] is 2.04 µM (inactive); in assay [9] it was 2.47 µM (inactive); in [10] it was 1.64 µM (inactive); in [11], 4.22 µM (inactive); in assay [12], 2.02 µM (inactive); in assay [13] it was 16.9 µM (inactive). The GI50 in assay [14] is 1.91 µM (inactive); in assay [15] it was 2.22 µM (inactive); in assay [16], 1.77 µM (inactive); in assay [17], 1.73 µM (inactive); in [18] it was 4.39 µM (inactive).

(Values after ChEMBL document CHEMBL1201862, “PubChem BioAssay data set” (2004).)
